Where a name gives a salt, the structure may show the parent alone. Bounds are passed on as bounds.

This note sets out measurements from US12544359B2, “1-aminosulfonyl-2-carboxypyrrole derivatives as metallo-beta-lactamase inhibitors” (INFEX Therapeutics Limited, priority 2019, dated 2026).

For one data set, the target named is NDM-1 (Klebsiella pneumoniae, UniProt C7C422). Put plainly: metallo-β-lactamase inhibition assay (nitrocefin). The format is biochemical. The note with it: 1.5 nM NDM-1, 100 μM nitrocefin, 37° C., pH 7.5. How it is done: Compounds of the invention were tested in a metallo-β-lactamase inhibition assay to investigate mechanism of action of the compounds. Results are reported as the concentration of test article required to inhibit enzyme activity by 50% (IC50).
Inhibition of metallo-β-lactamase enzyme function was performed at 37° C. in buffer at pH 7.5 (50 mM HEPES, 150 mM NaCl, 0.1 mM ZnSO4, 20 μg/mL PEG4000), containing 1.5 nM NDM-1, 100 μM nitrocefin, and a range of concentrations of compound. Absorbance at 490 nm was measured using a BMG LABTECH FLUOstar Omega microplate reader every minute for 30 minutes. IC50s were determined from the average increase in OD per minute versus the Log 10 concentration of compound using GraphPad Prism.

Data set [1] can be described thus: Cytotoxicity Assay (CellTiter-Glo). The format is cell-based. Conditions: human, Hep G2 cells (ATCC HB-8065); 24 h exposure; read-out: HepG2 CC50. How it is done:
Cytotoxicity was evaluated in human Hep G2 cells (ATCC HB-8065) seeded at a density of 2×10^5 cells per well and incubated for 24 h at 37° C., 5% CO2. Cells were exposed to a doubling dilution series of test article. After 24 h exposure, the viability of the cells was determined using CellTiter-Glo® (Promega, WI, USA) according to the manufacturer's instructions. Results are reported as the concentration of test article required to reduce cell viability by 50% (CC50).
On the technique in general: ATP-based viability assays read luminescence as a measure of living cells.

Data set [2] in a line: solubility study in saline, identified visually. The format is physicochemical. The note with it: 2 mg in 40 μL saline (50 mg/mL), visual; free base unless indicated. How it is done: Compounds were also tested in a solubility study. Each sample (2 mg) was weighed into a clear 1.75 mL vial followed by the addition of saline (40 μL, to make up to 50 mg/mL). Unless indicated otherwise, the compounds were tested as the free base. Each resulting mixture was vortexed (if required) and the solubility of each was identified visually.

Data set [3] has as its system Cerep SafetyScreen44 Panel (44 targets). In words: off-target inhibition, Cerep SafetyScreen44 Panel. On the procedure:
Compounds were also tested for off-target inhibition in a Cerep SafetyScreen44 Panel.

The next data set deals with A. baumannii SG698 NDM-1. In words: Meropenem combination MIC. The format is cell-based. Conditions: meropenem only (baseline). How it is done: (§1) MICs were determined by exposing bacteria to serial dilutions of antibacterial agents in MHB-II (cation-adjusted Mueller-Hinton Broth pH 7.4) according to Clinical and Laboratory Standards Institute (CLSI) broth microdilution guidelines (Cockerill et al., 2012).
(§2) Combination MIC were performed as described for MIC determinations with the addition of 4 mg/L test article to MHB-II.
(§3) The compounds of the invention were tested against a primary panel of bacterial strains, columns I-V of Table 2. As appropriate, compounds considered suitable for further investigation were tested against a secondary panel of bacterial strains, columns VI and VII of Table 2.

The test system of data set [4] is E. coli ATCCBAA-2452 NDM-1. Put plainly: Meropenem combination MIC. The format is cell-based. Conditions: meropenem only (baseline). On the procedure: as §1, §2, §3
For the next data set, the system named is E. coli NCTC13476 IMP. In words: Meropenem combination MIC. The format is cell-based. The note with it: meropenem only (baseline). How it is done: as §1, §2, §3
The test system of data set [5] is K. pneumoniae ATCC BAA2146 NDM-1. In words: Meropenem combination MIC. The format is cell-based. The note with it: meropenem only (baseline). How it is done:
as §1, §2, §3

For data set [6], the system named is K. pneumoniae NCTC13439 VIM-1. In words: Meropenem combination MIC. The format is cell-based. Conditions: meropenem only (baseline). How it is done: as §1, §2, §3
Data set [7] has as its system K. pneumoniae NCTC13440 VIM-1. In words: Meropenem combination MIC. The format is cell-based. Conditions: meropenem only (baseline). How it is done:
as §1, §2, §3

NDM-1, sequence (C7C422 whole entry, looked up, species assumed): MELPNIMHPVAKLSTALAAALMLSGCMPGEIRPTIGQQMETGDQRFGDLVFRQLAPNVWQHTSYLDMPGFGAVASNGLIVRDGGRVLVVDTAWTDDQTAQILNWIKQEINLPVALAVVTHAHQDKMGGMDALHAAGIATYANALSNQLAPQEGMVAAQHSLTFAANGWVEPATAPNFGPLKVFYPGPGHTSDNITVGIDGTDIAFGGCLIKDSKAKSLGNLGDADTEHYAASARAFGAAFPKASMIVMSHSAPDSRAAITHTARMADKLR

What is called IC50 is the midpoint of a concentration-inhibition curve. The CC50 is the concentration that lowers cell viability or growth by half. In turn, `C[C@H](N)C(=O)N1CCC(c2ccn(S(N)(=O)=O)c2C(=O)O)CC1` [Example 69, 3-[1-[(2S)-2-Aminopropanoyl]-4-piperidyl]-1-sulfamoyl-pyrrole-2-carboxylic acid] displayed an IC50 against NDM-1 of 1480 nM. In addition, the CC50 at 24 h in data set [1] was greater than 256 µg/mL. The Solubility entry in data set [2] is listed as “Soluble”. Also, in data set [3], the “Number of targets ≥50% inhibition at 100 μM” value was 0.

Consider `C[C@@H](O)[C@H]1C(=O)N2C(C(=O)O)=C(S[C@@H]3CN[C@H](C(=O)N(C)C)C3)[C@H](C)[C@H]12` [Meropenem, meropenem], for which the “Meropenem MIC (μg/mL) IV A. baumannii SG698 NDM-1” value in the data set on A. baumannii SG698 NDM-1 was 8 µg/mL. Besides, the “Meropenem MIC (μg/mL) I E. coli ATCCBAA-2452 NDM-1” value in data set [4] worked out at 1 µg/mL. Further, the “Meropenem MIC (μg/mL) II E. coli NCTC13476 IMP” value with E. coli NCTC13476 IMP amounted to 4 µg/mL. In addition, the “Meropenem MIC (μg/mL) III K. pneumoniae ATCC BAA2146 NDM-1” value in [5] came out at 16 µg/mL. In data set [6], the “Meropenem MIC (μg/mL) VII K. pneumoniae NCTC13439 VIM-1” value worked out at 0.5 µg/mL. Further, in data set [7], the “Meropenem MIC (μg/mL) V K. pneumoniae NCTC13440 VIM-1” value turned out to be 1 µg/mL.

Compound `CNCCN(C)C(=O)c1ccc(-c2ccn(S(N)(=O)=O)c2C(=O)O)cc1` [Example 25, 3-[4-[Methyl-[2-(methylamino)ethyl]carbamoyl]phenyl]-1-sulfamoyl-pyrrole-2-carboxylic acid] returned an IC50 against NDM-1 of 319 nM. For the same compound, in [1], the CC50 at 24 h is greater than 256 µg/mL. For the same compound, in [2], the Solubility entry is “Soluble”. In addition, in data set [3], the “Number of targets ≥50% inhibition at 100 μM” value is recorded as 0.

Compound `NS(=O)(=O)n1ccc(-c2ccc(C(=O)NCC(=O)O)cc2)c1C(=O)O` [Example 7, 3-[4-(Carboxymethyl-carbamoyl)phenyl]-1-sulfamoyl-pyrrole-2-carboxylic acid] showed an IC50 at NDM-1 of 650 nM. Further, the CC50 at 24 h in [1] was greater than 256 µg/mL.

On NDM-1, `CCNCCNC(=O)c1ccc(-c2ccn(S(N)(=O)=O)c2C(=O)O)cc1` [Example 32, 3-[4-[2-(Ethylamino)ethylcarbamoyl]phenyl]-1-sulfamoyl-pyrrole-2-carboxylic acid] came in with an IC50 of 1060 nM. In addition, in data set [1], the half-maximal cytotoxic concentration (CC50) at 24 h is greater than 256 µg/mL.

On NDM-1, `NS(=O)(=O)n1ccc(-c2ccc(C(=O)NCCN3CCCC3=O)cc2)c1C(=O)O` [Example 16, 3-[4-[2-(2-Oxopyrrolidin-1-yl)ethylcarbamoyl]phenyl]-1-sulfamoyl-pyrrole-2-carboxylic acid] came in with an IC50 of 623 nM. Also, the CC50 at 24 h in data set [1] is greater than 256 µg/mL.

In the case of `NCCNc1ccc(-c2ccn(S(N)(=O)=O)c2C(=O)O)cn1` [Example 95, 3-[6-(2-Aminoethylamino)-3-pyridyl]-1-sulfamoyl-pyrrole-2-carboxylic acid hydrochloride], on NDM-1, inhibition was half-maximal at 377 nM (IC50). The CC50 at 24 h in data set [1] was greater than 256 µg/mL.

Compound `NCC(=O)Nc1ccc(-c2ccn(S(N)(=O)=O)c2C(=O)O)cn1` [Example 93, 3-[6-[(2-Aminoacetyl)amino]-3-pyridyl]-1-sulfamoyl-pyrrole-2-carboxylic acid, sodium salt] showed an IC50 against NDM-1 of 162 nM. Moreover, the CC50 at 24 h in data set [1] was greater than 256 µg/mL.

`NS(=O)(=O)n1ccc(C2CCN(C(=O)C3CNC3)CC2)c1C(=O)O` [Example 74, 3-[1-(Azetidine-3-carbonyl)-4-piperidyl]-1-sulfamoyl-pyrrole-2-carboxylic acid] came in with an IC50 at NDM-1 of 1550 nM. For the same compound, the CC50 at 24 h in [1] is greater than 256 µg/mL.

On NDM-1, `CNCCN(C)C(=O)C1CCC(c2ccn(S(N)(=O)=O)c2C(=O)O)CC1` (stereo not drawn) [Example 87, 3-[4-[Methyl-[2-(methylamino)ethyl]carbamoyl]cyclohexyl]-1-sulfamoyl-pyrrole-2-carboxylic acid] showed an IC50 of 248 nM. Further, the CC50 at 24 h in [1] was greater than 256 µg/mL.

On NDM-1, `NCCNC(=O)c1ccc(-c2ccn(S(N)(=O)=O)c2C(=O)O)cc1` [Example 26, 3-[4-(2-Aminoethyl-carbamoyl)phenyl]-1-sulfamoyl-pyrrole-2-carboxylic acid] yielded an IC50 of 420 nM. Also, the CC50 at 24 h in [1] is greater than 256 µg/mL.
